Assay results: patent US20070010489A1 (priority 2002, published 2007)
“And” between values parts separate entries of the source, which are not always exact repeats. Equal values may be shown once. Read-outs that look alike come from different tables or passages of the source.

What was measured:
[1] = target: T1, 84V90M (Human immunodeficiency virus type 1 group M subtype B, UniProt P04585, I572V/L578M); format: biochemical, HIV; conditions: Enzymatic assay
[2] = target: T1, 84V90M; experiment: cell-based; set-up: species or system HIV; conditions: Cell-based assay (MT-4)
[3] = target: T2, recombinant HIV-1 protease (Human immunodeficiency virus type 1 group M subtype B, UniProt P04585); experiment: biochemical; conditions: for IC50: read-out: WT IC50
T2 construct: Enzyme: recombinant HIV-1 protease expressed in E. Coli; purchased Bachem California, Inc. H-9040; host or cells: E. coli

[4] = tested on: wild-type HIV-1 strain IIIB; experiment: microbe, parasite or virus in culture; format: cell-based
[5] = tested on: mutant HIV-1 with I84V/L90M mutations; experiment: microbe, parasite or virus in culture; format: cell-based
[6] = Human immunodeficiency virus 1, IIIB, class symbols
[7] = read-out: HIV-1 protease inhibition Ki
[8] = read-out: Anti-HIV-1 Cell Culture Activity EC50

SMILES | IC50 [1] | EC50 [2] | also measured
CCOP(=O)(COCCCCN1C(=O)N(Cc2ccc3[nH]nc(N)c3c2)C(Cc2ccccc2)C(O)C(O)C1Cc1ccccc1)OCC (stereo not shown) [CH2OCH2PO3Et2] | 123 nM | 3300 nM | 
Nc1n[nH]c2ccc(CN3C(=O)N(CCCCOCP(=O)(O)O)C(Cc4ccccc4)C(O)C(O)C3Cc3ccccc3)cc12 (stereo not shown) [CH2OCH2PO3H2] | 205 nM | > 4240 nM | 
CCCCN1C(=O)N(Cc2ccc3[nH]nc(N)c3c2)C(Cc2ccccc2)C(O)C(O)C1Cc1ccccc1 (stereo not shown) [DMP-851] | 9.4 nM | 918 nM | 
Nc1n[nH]c2ccc(CN3C(=O)N(Cc4ccc(OCP(=O)(OCc5ccccc5)OCc5ccccc5)cc4)C(Cc4ccccc4)C(O)C(O)C3Cc3ccccc3)cc12 (stereo not shown) | 2040 nM | 4960 nM | Ki ([3]; read-out: Ki): > 5000 pM; IC50 [3]: 276 nM
CCOP(=O)(COc1ccc(CC2C(O)C(O)C(Cc3ccc(O)cc3)N(Cc3ccc(O)cc3)C(=O)N2Cc2ccc(O)cc2)cc1)OCC (stereo not shown) [OH, Ph-pOH, OCH2PO3Et2] | 18 nM | 1910 nM | 
Nc1n[nH]c2ccc(CN3C(=O)N(CCCOCP(=O)(O)O)C(Cc4ccccc4)C(O)C(O)C3Cc3ccccc3)cc12 (stereo not shown) [OCH2PO3H2] | 137 nM | > 6000 nM | 
CCOP(=O)(COc1cccc(CN2C(=O)N(Cc3ccc4[nH]nc(N)c4c3)C(Cc3ccccc3)C(O)C(O)C2Cc2ccccc2)c1)OCC (stereo not shown) | 169 nM | 3000 nM | Ki ([3]; read-out: Ki): 1930 pM; IC50 [3]: 70 nM
CCOC(=O)C(C)NP(=O)(COc1cccc(CN2C(=O)N(Cc3ccc4[nH]nc(N)c4c3)C(Cc3ccccc3)C(O)C(O)C2Cc2ccccc2)c1)NC(C)C(=O)OCC (stereo not shown) [m-bis-Ala-Et] |  | > 6000 nM | 
CC(C)CN(CC(O)C(Cc1ccc(OCP(=O)(NC(C)C(=O)OC(C)C)Oc2ccccc2)cc1)NC(=O)OC1CCOC1)S(=O)(=O)c1ccc(N)cc1 (stereo not shown) [drawing 1864 R1=OPh R2=Ala-iPr] |  |  | Ki ([3]; Ki (pM), class symbols): 10 to 100 pM; EC50 [4, 6]: 50 to 500 nM
CCOP(=O)(COc1ccc(CC2C(O)C(O)C(Cc3ccc(OC)cc3)N(Cc3cccnc3)C(=O)N2Cc2cccnc2)cc1)OCC (stereo not shown) [OCH3, m-pyridine, OCH2PO3Et2] |  | 765 nM | 
CCOP(=O)(COCCCN1C(=O)N(Cc2ccc3[nH]nc(N)c3c2)C(Cc2ccccc2)C(O)C(O)C1Cc1ccccc1)OCC (stereo not shown) [OCH2PO3Et2] | 157 nM | > 6000 nM | 
CCOC(=O)C(CC(C)C)NP(=O)(COc1ccc(CC(NC(=O)OC2COC3OCCC23)C(O)CN(CC(C)C)S(=O)(=O)c2ccc(OC)cc2)cc1)NC(CC(C)C)C(=O)OCC (stereo not shown) [Example 16g] |  |  | Ki [3, 7]: 29 ± 9 pM; EC50 [4, 8]: 6.8 ± 0.4 nM
CCOC(=O)C(CC)OP(=O)(COc1ccc(CC(NC(=O)OC2COC3OCCC23)C(O)CN(CC(C)C)S(=O)(=O)c2ccc(OC)cc2)cc1)Oc1ccccc1 (stereo not shown) [Compound 5a] |  |  | Ki ([3]; Ki (pM), class symbols): 10 to 100 pM; EC50 [4, 6]: < 50 nM; I84V/L90M fold change ([5]; fold difference in EC50 mutant vs wild type, class symbols): − (≦3)
CCOC(=O)C(CC)OP(=O)(COc1ccc(CC(NC(=O)OC2COC3OCCC23)C(O)CN(CC(C)C)S(=O)(=O)c2ccc(OC)cc2)cc1)Oc1ccccc1 (stereo not shown) [Compound 5b] |  |  | Ki ([3]; Ki (pM), class symbols): 100 to 1000 pM
COc1ccc(S(=O)(=O)N(CC(C)C)C[C@@H](O)[C@H](Cc2ccc(OCP(=O)(Oc3ccccc3)Oc3ccccc3)cc2)NC(=O)OC2CCOC2)cc1 (stereo partly shown) [OMe, phenol] |  |  | Ki ([3]; read-out: Ki): < 10 pM; EC50 ([4]; read-out: EC50): < 50 nM; I84V/L90M fold change ([5]; fold change): + (>3 to ≦10)
CCOC(=O)C(CC)NP(=O)(COc1ccc(CC(NC(=O)OC2COC3OCCC23)C(O)CN(CC(C)C)S(=O)(=O)c2ccc(OC)cc2)cc1)NC(CC)C(=O)OCC (stereo not shown) [Example 16e] |  |  | Ki [3, 7]: 8.8 ± 1.7 pM; EC50 [4, 8]: 12.5 ± 3.5 nM
CCOP(=O)(COc1ccc(CC2C(O)C(O)C(Cc3ccccc3)N(Cc3ccccc3)C(=O)N2Cc2ccccc2)cc1)OCC (stereo not shown) | 48 nM | 2460 nM | 
CCCCOC(=O)C(C)NP(=O)(COc1cccc(CN2C(=O)N(Cc3ccc4[nH]nc(N)c4c3)C(Cc3ccccc3)C(O)C(O)C2Cc2ccccc2)c1)NC(C)C(=O)OCCCC (stereo not shown) [m-bis-Ala-Bu] |  | > 6000 nM | 
CCOP(=O)(COc1ccc(CC(NC(=O)OC2CCOC2)C(O)CN(CC(C)C)S(=O)(=O)c2ccc(OC)cc2)cc1)OCC (stereo not shown) [OMe, OEt] |  |  | Ki ([3]; read-out: Ki): < 10 pM and 10 to 100 pM; EC50 ([4]; read-out: EC50): < 50 nM
